Results: publication PMC5218480 (PLoS ONE, 2017)

Test system: MV-4-11 cells
Test: Gene expression microarray analysis (Affymetrix PrimeView) and GSEA
Type: cell-based, human
Design: RFU PODN (11730768_x_at) / Fold change /veh PODN (11730768_x_at) / RFU LINC00158 (11744669_a_at) / Fold change /veh LINC00158 (11744669_a_at) / RFU DUSP10 (11751237_a_at) / Fold change /veh DUSP10 (11751237_a_at) / RFU ID3 (11757404_x_at) / Fold change /veh ID3 (11757404_x_at) / RFU PLEKHG5 (11737974_s_at) / Fold change /veh PLEKHG5 (11737974_s_at) / RFU LRRC4B (11730491_at) / Fold change /veh LRRC4B (11730491_at) / RFU GIMAP4 (11747438_a_at) / Fold change /veh GIMAP4 (11747438_a_at) / RFU KRT8 (11758183_x_at) / Fold change /veh KRT8 (11758183_x_at) / RFU CNN1 (11734310_a_at) / Fold change /veh CNN1 (11734310_a_at) / RFU VPS37D (11726825_at) / Fold change /veh VPS37D (11726825_at) / RFU C10orf10 (11716522_x_at) / Fold change /veh C10orf10 (11716522_x_at) / RFU KIR2DL2 /// KIR2DL4 /// KIR2DL5A /// KIR2DL5B /// KIR2DS1 /// KIR2DS2 /// KIR2DS3 /// KIR2DS4 /// KIR3DL3 /// KIR3DL3 /// KIR3DS1 (11738374_at) / Fold change /veh KIR2DL2 /// KIR2DL4 /// KIR2DL5A /// KIR2DL5B /// KIR2DS1 /// KIR2DS2 /// KIR2DS3 /// KIR2DS4 /// KIR3DL3 /// KIR3DL3 /// KIR3DS1 (11738374_at) / RFU C1QL1 (11718748_at) / Fold change /veh C1QL1 (11718748_at) / RFU TMPRSS4 (11747572_a_at) / Fold change /veh TMPRSS4 (11747572_a_at) / RFU HAMP (11756126_x_at) / Fold change /veh HAMP (11756126_x_at) / RFU RNFT2 (11725882_a_at) / Fold change /veh RNFT2 (11725882_a_at) / RFU NR4A2 (11747474_a_at) / Fold change /veh NR4A2 (11747474_a_at) / RFU ABCC12 (11746883_a_at) / Fold change /veh ABCC12 (11746883_a_at) / RFU TMEM136 (11760407_x_at) / Fold change /veh TMEM136 (11760407_x_at) / RFU CLDN22 /// WWC2 (11732394_at) / Fold change /veh CLDN22 /// WWC2 (11732394_at) / RFU HLA-DPB1 (11760878_x_at) / Fold change /veh HLA-DPB1 (11760878_x_at) / RFU SPINT1 (11716480_a_at) / Fold change /veh SPINT1 (11716480_a_at) / RFU GAP43 (11754022_s_at) / Fold change /veh GAP43 (11754022_s_at) / RFU A4GNT (11735810_at) / Fold change /veh A4GNT (11735810_at) / RFU PRB3 (11715151_x_at) / Fold change /veh PRB3 (11715151_x_at) / RFU TUBB4B (11761932_at) / Fold change /veh TUBB4B (11761932_at) / RFU CAPN14 (11732068_a_at) / Fold change /veh CAPN14 (11732068_a_at) / RFU TMCC2 (11721928_a_at) / Fold change /veh TMCC2 (11721928_a_at) / RFU IRGQ (11745062_a_at) / Fold change /veh IRGQ (11745062_a_at) / RFU FAM174B (11720279_a_at) / Fold change /veh FAM174B (11720279_a_at) / RFU TMPRSS4 (11748680_a_at) / Fold change /veh TMPRSS4 (11748680_a_at) / RFU FAM212B (11763350_a_at) / Fold change /veh FAM212B (11763350_a_at) / RFU PLEKHG5 (11743358_a_at) / Fold change /veh PLEKHG5 (11743358_a_at) / RFU ZSCAN30 (11745921_a_at) / Fold change /veh ZSCAN30 (11745921_a_at) / RFU CMKLR1 (11741424_a_at) / Fold change /veh CMKLR1 (11741424_a_at) / RFU LOC101060620 /// MAPK8IP1 (11723275_at) / Fold change /veh LOC101060620 /// MAPK8IP1 (11723275_at) / RFU SPTSSB (11747773_x_at) / Fold change /veh SPTSSB (11747773_x_at) / RFU PRSS12 (11739890_at) / Fold change /veh PRSS12 (11739890_at) / RFU BIN1 (11741810_x_at) / Fold change /veh BIN1 (11741810_x_at) / RFU WNT11 (11732464_a_at) / Fold change /veh WNT11 (11732464_a_at) / RFU C10orf10 (11716521_a_at) / Fold change /veh C10orf10 (11716521_a_at) / RFU C5orf56 (11738089_at) / Fold change /veh C5orf56 (11738089_at) / RFU CYB561 (11721691_x_at) / Fold change /veh CYB561 (11721691_x_at) / RFU ANKRD19P (11752326_a_at) / Fold change /veh ANKRD19P (11752326_a_at) / RFU OR2T12 /// OR2T33 /// OR2T8 (11738714_s_at) / Fold change /veh OR2T12 /// OR2T33 /// OR2T8 (11738714_s_at) / RFU VCAN (11748164_a_at) / Fold change /veh VCAN (11748164_a_at) / RFU JSRP1 (11732532_at) / Fold change /veh JSRP1 (11732532_at) / RFU KRTAP10-11 (11738290_x_at) / Fold change /veh KRTAP10-11 (11738290_x_at) / RFU MYO3A (11730013_a_at) / Fold change /veh MYO3A (11730013_a_at) / RFU EBF3 (11725865_a_at) / Fold change /veh EBF3 (11725865_a_at) / RFU CAMK2N1 (11719241_x_at) / Fold change /veh CAMK2N1 (11719241_x_at) / RFU C5orf56 (11738088_a_at) / Fold change /veh C5orf56 (11738088_a_at) / RFU OLFML3 (11715873_a_at) / Fold change /veh OLFML3 (11715873_a_at) / RFU LOC100653217 /// NTM (11731650_a_at) / Fold change /veh LOC100653217 /// NTM (11731650_a_at) / RFU MAPK11 (11762145_a_at) / Fold change /veh MAPK11 (11762145_a_at) / RFU FIZ1 (11724087_x_at) / Fold change /veh FIZ1 (11724087_x_at) / RFU OASL (11726364_x_at) / Fold change /veh OASL (11726364_x_at) / RFU SOX15 (11748057_x_at) / Fold change /veh SOX15 (11748057_x_at) / RFU CD79A (11719716_a_at) / Fold change /veh CD79A (11719716_a_at) / RFU HIST1H1D (11736915_at) / Fold change /veh HIST1H1D (11736915_at) / RFU CASKIN2 (11723855_a_at) / Fold change /veh CASKIN2 (11723855_a_at) / RFU LOC730098 (11760151_x_at) / Fold change /veh LOC730098 (11760151_x_at) / RFU OR4N2 (11742367_at) / Fold change /veh OR4N2 (11742367_at) / RFU PRRT2 (11749266_a_at) / Fold change /veh PRRT2 (11749266_a_at) / RFU SNX32 (11753110_a_at) / Fold change /veh SNX32 (11753110_a_at) / RFU CDHR5 (11726645_a_at) / Fold change /veh CDHR5 (11726645_a_at) / RFU RCAN1 (11760418_a_at) / Fold change /veh RCAN1 (11760418_a_at) / RFU FAM167A (11723789_a_at) / Fold change /veh FAM167A (11723789_a_at) / RFU FAM26E (11764081_at) / Fold change /veh FAM26E (11764081_at) / RFU ISYNA1 (11749810_s_at) / Fold change /veh ISYNA1 (11749810_s_at) / RFU ACY1 (11761880_at) / Fold change /veh ACY1 (11761880_at) / RFU 11764098_at / Fold change /veh 11764098_at / RFU SAMD14 (11745864_x_at) / Fold change /veh SAMD14 (11745864_x_at) / RFU NPB (11741838_a_at) / Fold change /veh NPB (11741838_a_at) / RFU TMPRSS6 (11731388_a_at) / Fold change /veh TMPRSS6 (11731388_a_at) / RFU KRTAP10-2 (11738614_at) / Fold change /veh KRTAP10-2 (11738614_at) / RFU ARHGAP8 /// PRR5-ARHGAP8 (11727945_x_at) / Fold change /veh ARHGAP8 /// PRR5-ARHGAP8 (11727945_x_at) / RFU KRTAP5-7 /// NADSYN1 (11734609_at) / Fold change /veh KRTAP5-7 /// NADSYN1 (11734609_at) / RFU RASL12 (11751679_a_at) / Fold change /veh RASL12 (11751679_a_at) / RFU CDKN2B (11736163_a_at) / Fold change /veh CDKN2B (11736163_a_at) / RFU PRF1 (11729649_at) / Fold change /veh PRF1 (11729649_at) / RFU, ZNF638 /// ZNF638-IT1 / Fold change vs veh, ZNF638 /// ZNF638-IT1 / RFU, PANK3 / Fold change vs veh, PANK3 / RFU, SH3YL1 / Fold change vs veh, SH3YL1 / RFU, ZEB2 / Fold change vs veh, ZEB2 / RFU, NRIP1 / Fold change vs veh, NRIP1 / RFU, PTTG1IP / Fold change vs veh, PTTG1IP / RFU, CAPN2 / Fold change vs veh, CAPN2 / RFU, MED14 / Fold change vs veh, MED14 / RFU, SNORA58 / Fold change vs veh, SNORA58 / RFU, C1orf63 / Fold change vs veh, C1orf63 / RFU, LRRFIP1 / Fold change vs veh, LRRFIP1 / RFU, NDUFAF7 / Fold change vs veh, NDUFAF7 / RFU, SLC12A2 / Fold change vs veh, SLC12A2 / RFU, IBTK / Fold change vs veh, IBTK / RFU, ESF1 / Fold change vs veh, ESF1 / Fold change vs veh, TMEM50B / RFU, TAOK1 / Fold change vs veh, TAOK1 / RFU, ACBD3 / Fold change vs veh, ACBD3 / RFU, TMA16 / Fold change vs veh, TMA16 / RFU, RWDD3 / Fold change vs veh, RWDD3 / RFU, BCAT1 / Fold change vs veh, BCAT1 / RFU, EDEM3 / Fold change vs veh, EDEM3 / RFU, TMEM33 / Fold change vs veh, TMEM33 / RFU, WDR75 / Fold change vs veh, WDR75 / RFU, AHCTF1 / Fold change vs veh, AHCTF1 / RFU, TFRC / Fold change vs veh, TFRC / RFU, ZDHHC17 / Fold change vs veh, ZDHHC17 / RFU, NOM1 / Fold change vs veh, NOM1 / RFU, ARL8B / Fold change vs veh, ARL8B / RFU, ZBTB11 / Fold change vs veh, ZBTB11 / RFU, TAMM41 / Fold change vs veh, TAMM41 / RFU, KIAA1704 /// LOC100996395 / Fold change vs veh, KIAA1704 /// LOC100996395 / RFU, ING1 / Fold change vs veh, ING1 / RFU, TRMT61B / Fold change vs veh, TRMT61B / RFU, FUBP3 / Fold change vs veh, FUBP3 / RFU, TP53 / Fold change vs veh, TP53 / RFU, TNKS2 / Fold change vs veh, TNKS2 / RFU, ZFP14 / Fold change vs veh, ZFP14 / RFU, ACTR2 / Fold change vs veh, ACTR2 / RFU, PPP3R1 / Fold change vs veh, PPP3R1 / RFU, PIK3R1 / Fold change vs veh, PIK3R1 / RFU, HNRNPA1 / Fold change vs veh, HNRNPA1 / RFU, RNF170 / Fold change vs veh, RNF170 / RFU, ZNF28 / Fold change vs veh, ZNF28 / RFU, RNGTT / Fold change vs veh, RNGTT / RFU, OGT / Fold change vs veh, OGT / RFU, BRD1 / Fold change vs veh, BRD1 / RFU, MARS / Fold change vs veh, MARS / RFU, ZNF655 / Fold change vs veh, ZNF655 / RFU, FAHD1 / Fold change vs veh, FAHD1 / RFU, BDP1 / Fold change vs veh, BDP1 / RFU, LRRCC1 / Fold change vs veh, LRRCC1 / RFU, ARID1A / Fold change vs veh, ARID1A / RFU, ZNF146 / Fold change vs veh, ZNF146 / RFU, ZNF330 / Fold change vs veh, ZNF330 / RFU, GPN3 / Fold change vs veh, GPN3 / RFU, C9orf123 / Fold change vs veh, C9orf123 / RFU, N4BP2L2 / Fold change vs veh, N4BP2L2 / RFU, ARFIP1 / Fold change vs veh, ARFIP1 / RFU, FAM179B / Fold change vs veh, FAM179B / RFU, BCL10 / Fold change vs veh, BCL10 / RFU, UHRF1BP1L / Fold change vs veh, UHRF1BP1L / RFU, BET1 / Fold change vs veh, BET1 / RFU, CNOT2 / Fold change vs veh, CNOT2 / RFU, ZNF268 / Fold change vs veh, ZNF268 / Fold change vs veh, ZNF507 / RFU, DGCR2 / Fold change vs veh, DGCR2 / RFU, WDSUB1 / Fold change vs veh, WDSUB1 / Fold change vs veh, HSP90B1 /// MIR3652 / RFU, ADSS / Fold change vs veh, ADSS / RFU, GK / Fold change vs veh, GK / RFU, ZNF148 / Fold change vs veh, ZNF148 / RFU, TAF9 / Fold change vs veh, TAF9 / RFU, SLC1A5 / Fold change vs veh, SLC1A5 / RFU, SLMO2 / Fold change vs veh, SLMO2 / RFU, ABCC4 / Fold change vs veh, ABCC4 / RFU, LOC101060439 /// RAP1B / Fold change vs veh, LOC101060439 /// RAP1B / RFU, RFX7 / Fold change vs veh, RFX7 / RFU, GTPBP10 / Fold change vs veh, GTPBP10 / RFU, CNEP1R1 / Fold change vs veh, CNEP1R1 / RFU, BIVM-ERCC5 /// ERCC5 / Fold change vs veh, BIVM-ERCC5 /// ERCC5 / RFU, ILF3 / Fold change vs veh, ILF3 / RFU 11762660_at / Fold change /veh 11762660_at / RFU VCAN (11757783_s_at) / Fold change /veh VCAN (11757783_s_at) / RFU DDX43 (11728927_at) / Fold change /veh DDX43 (11728927_at) / RFU KRT8 (11758188_x_at) / Fold change /veh KRT8 (11758188_x_at) / RFU NKD1 (11759106_at) / Fold change /veh NKD1 (11759106_at) / RFU SRD5A1 (11742802_a_at) / Fold change /veh SRD5A1 (11742802_a_at) / RFU TPSAB1 /// TPSB2 (11721975_s_at) / Fold change /veh TPSAB1 /// TPSB2 (11721975_s_at) / RFU GSTM3 (11746129_a_at) / Fold change /veh GSTM3 (11746129_a_at) / RFU IL23R (11737362_x_at) / Fold change /veh IL23R (11737362_x_at) / RFU TMEM51 (11727254_a_at) / Fold change /veh TMEM51 (11727254_a_at) / RFU PIWIL2 (11732686_x_at) / Fold change /veh PIWIL2 (11732686_x_at) / RFU ORM1 (11744905_x_at) / Fold change /veh ORM1 (11744905_x_at) / RFU CCDC152 (11743942_at) / Fold change /veh CCDC152 (11743942_at) / RFU ECM1 (11717891_a_at) / Fold change /veh ECM1 (11717891_a_at) / RFU IL23R (11748794_a_at) / Fold change /veh IL23R (11748794_a_at) / RFU TNFAIP8L3 (11732012_x_at) / Fold change /veh TNFAIP8L3 (11732012_x_at) / RFU MBOAT4 (11741988_at) / Fold change /veh MBOAT4 (11741988_at) / RFU 11764193_at / Fold change /veh 11764193_at / RFU TMEM53 (11763286_at) / Fold change /veh TMEM53 (11763286_at) / RFU MAGEB2 (11727129_at) / Fold change /veh MAGEB2 (11727129_at) / RFU TMEM200A (11744735_a_at) / Fold change /veh TMEM200A (11744735_a_at) / RFU CCDC152 (11751479_a_at) / Fold change /veh CCDC152 (11751479_a_at) / RFU FAM211A (11726209_a_at) / Fold change /veh FAM211A (11726209_a_at) / RFU RGS16 (11746705_a_at) / Fold change /veh RGS16 (11746705_a_at) / RFU VCAN (11755009_s_at) / Fold change /veh VCAN (11755009_s_at) / RFU RHOB (11743442_s_at) / Fold change /veh RHOB (11743442_s_at) / RFU RGS16 (11720943_a_at) / Fold change /veh RGS16 (11720943_a_at) / RFU RGS16 (11720944_at) / Fold change /veh RGS16 (11720944_at) / RFU, VPS4B / Fold change vs veh, VPS4B / RFU, CREB1 / Fold change vs veh, CREB1 / RFU, DNAJC13 / Fold change vs veh, DNAJC13 / RFU, GNAQ / Fold change vs veh, GNAQ / RFU, CDK5R1 / Fold change vs veh, CDK5R1 / RFU, ZRANB3 / Fold change vs veh, ZRANB3 / RFU, CUL4A / Fold change vs veh, CUL4A / RFU, CCNY / Fold change vs veh, CCNY / RFU, UFL1 / Fold change vs veh, UFL1 / RFU, COG3 / Fold change vs veh, COG3 / RFU, DIAPH2 / Fold change vs veh, DIAPH2 / RFU, SKA2 / Fold change vs veh, SKA2 / RFU, AFF3 / Fold change vs veh, AFF3 / RFU, LMF1 / Fold change vs veh, LMF1 / RFU, IPO11 / Fold change vs veh, IPO11 / RFU, DFFB / Fold change vs veh, DFFB / RFU, FOXP1 / Fold change vs veh, FOXP1 / RFU, CARD8 / Fold change vs veh, CARD8 / RFU, STRN3 / Fold change vs veh, STRN3 / RFU, ADK / Fold change vs veh, ADK / RFU, RASSF2 / Fold change vs veh, RASSF2 / RFU, WIPF1 / Fold change vs veh, WIPF1 / RFU, LARP1B / Fold change vs veh, LARP1B / RFU, RASA1 / Fold change vs veh, RASA1 / RFU, RB1 / Fold change vs veh, RB1 / RFU, PPFIA1 / Fold change vs veh, PPFIA1 / RFU, MAT2A / Fold change vs veh, MAT2A / RFU, CCT5 / Fold change vs veh, CCT5 / RFU, WDR92 / Fold change vs veh, WDR92 / RFU, CUX1 / Fold change vs veh, CUX1 / RFU, TTC7A / Fold change vs veh, TTC7A / RFU, TMEM135 / Fold change vs veh, TMEM135 / RFU, DEPTOR / Fold change vs veh, DEPTOR / RFU, CPM / Fold change vs veh, CPM / RFU, DNAJB6 / Fold change vs veh, DNAJB6 / RFU, CACNA2D3 / Fold change vs veh, CACNA2D3 / RFU, DTX4 / Fold change vs veh, DTX4 / RFU, TFCP2 / Fold change vs veh, TFCP2 / RFU, GMCL1 /// GMCL1P1 / Fold change vs veh, GMCL1 /// GMCL1P1 / RFU, AEBP2 / Fold change vs veh, AEBP2 / RFU, SNHG1 /// SNORD22 /// SNORD25 /// SNORD26 /// SNORD27 /// SNORD28 /// SNORD29 /// SNORD31 / Fold change vs veh, SNHG1 /// SNORD22 /// SNORD25 /// SNORD26 /// SNORD27 /// SNORD28 /// SNORD29 /// SNORD31 / Fold change (Aza/veh), C12orf56 (ProbeSet 11735607_a_at) / Fold change (ACY-1035/veh), C12orf56 (ProbeSet 11735607_a_at) / Fold change (Aza/veh), FGFR1OP (ProbeSet 11751329_s_at) / Fold change (ACY-1035/veh), FGFR1OP (ProbeSet 11751329_s_at) / Fold change (Aza/veh), VPS36 (ProbeSet 11739960_a_at) / Fold change (ACY-1035/veh), VPS36 (ProbeSet 11739960_a_at) / RFU SYPL1 (11715823_x_at) / Fold change /veh SYPL1 (11715823_x_at) / RFU IGFBP7 (11715501_s_at) / Fold change /veh IGFBP7 (11715501_s_at) / RFU REEP3 (11722064_at) / Fold change /veh REEP3 (11722064_at) / RFU IGLL1 (11728026_x_at) / Fold change /veh IGLL1 (11728026_x_at): dose or concentration left out as unconfirmed
Conditions: MV-4-11 cells, 48 hours

Nc1ccc(-c2cccs2)cc1NC(=O)c1ccc2c(c1)cc(C1CC1)n2CCN1CCOCC1 [ACY-1035]
Fold change /veh TMPRSS4 (11748680_a_at): 1.05
